Laboratory results taken from patent publication US20240360082A1, “SUBSTITUTED PYRIDONE COMPOUNDS USEFUL TO TREAT ORTH[…]” (priority 2021, published 2024).

Biological target: influenza A virus minigenome (PB2, PB1, PA, NP proteins) (UniProt P04665)
Assay type: cell-based
Conditions: read-out: RNP_ Hubei B IC50

influenza A virus minigenome (PB2, PB1, PA, NP proteins), sequence (P04665 whole entry): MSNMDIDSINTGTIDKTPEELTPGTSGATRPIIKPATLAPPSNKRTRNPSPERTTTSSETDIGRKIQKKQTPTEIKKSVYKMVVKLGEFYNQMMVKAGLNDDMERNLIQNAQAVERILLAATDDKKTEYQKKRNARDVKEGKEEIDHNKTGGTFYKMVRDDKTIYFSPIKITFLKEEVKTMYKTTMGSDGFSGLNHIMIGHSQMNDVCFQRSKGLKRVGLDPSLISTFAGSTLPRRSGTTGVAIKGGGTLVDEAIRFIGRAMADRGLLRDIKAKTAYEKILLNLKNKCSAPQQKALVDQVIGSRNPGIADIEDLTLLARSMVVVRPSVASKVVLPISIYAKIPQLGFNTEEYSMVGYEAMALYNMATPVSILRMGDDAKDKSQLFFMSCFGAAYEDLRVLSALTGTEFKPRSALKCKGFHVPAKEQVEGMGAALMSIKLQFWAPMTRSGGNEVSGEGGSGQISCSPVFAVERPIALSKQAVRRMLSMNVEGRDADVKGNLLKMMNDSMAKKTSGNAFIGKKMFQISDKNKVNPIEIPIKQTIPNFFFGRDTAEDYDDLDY

Row | SMILES | IC50 [µM]
1 | CN1[C@H](COc2ccc(-c3cc(C(N)=O)c(=O)[nH]c3C(F)(F)F)cc2)COC[C@@H]1C1CC1 [Example 209, 5-(4-(((3S,5S)-5-cyclopropyl-4-methylmorpholin-3-yl)methoxy)phenyl)-2-oxo-6-(trifluoromethyl)-1,2-dihydropyridine-3-carboxamide] | 5 to 10
2 | CN1[C@@H](COc2ccc(-c3cc(C(N)=O)c(=O)[nH]c3C(F)(F)F)cc2)COC[C@@H]1C1CC1 [Example 210, 5-(4-(((3R,5S)-5-cyclopropyl-4-methylmorpholin-3-yl)methoxy)phenyl)-2-oxo-6-(trifluoromethyl)-1,2-dihydropyridine-3-carboxamide] | 5 to 10
3 | CC(C)[C@H]1COCC(COc2ccc(-c3cc(C(N)=O)c(=O)[nH]c3C(F)(F)F)cc2)N1C (stereo partly drawn) [Example 211, 5-(4-(((5S)-5-isopropyl-4-methylmorpholin-3-yl)methoxy)phenyl)-2-oxo-6-(trifluoromethyl)-1,2-dihydropyridine-3-carboxamide] | 1 to 5
4 | CCn1nccc1COc1ccc(-c2cc(C(N)=O)c(=O)[nH]c2C(F)(F)F)cc1 [Example 217, 5-(4-((1-ethyl-1H-pyrazol-5-yl)methoxy)phenyl)-2-oxo-6-(trifluoromethyl)-1,2-dihydropyridine-3-carboxamide] | 25 to 50
5 | COCCn1cc(COc2ccc(-c3cc(C(N)=O)c(=O)[nH]c3C(F)(F)F)cc2)cn1 [Example 218, 5-(4-((1-(2-methoxyethyl)-1H-pyrazol-4-yl)methoxy)phenyl)-2-oxo-6-(trifluoromethyl)-1,2-dihydropyridine-3-carboxamide] | 25 to 50
6 | COCCn1nccc1COc1ccc(-c2cc(C(N)=O)c(=O)[nH]c2C(F)(F)F)cc1 [Example 219, 5-(4-((1-(2-methoxyethyl)-1H-pyrazol-5-yl)methoxy)phenyl)-2-oxo-6-(trifluoromethyl)-1,2-dihydropyridine-3-carboxamide] | 25 to 50
7 | Cn1cc(COc2ccc(-c3cc(C(N)=O)c(=O)[nH]c3C(F)(F)F)cc2)cn1 [Example 220, 5-(4-((1-methyl-1H-pyrazol-4-yl)methoxy)phenyl)-2-oxo-6-(trifluoromethyl)-1,2-dihydropyridine-3-carboxamide] | 25 to 50
8 | NC(=O)c1cc(-c2ccc(OCc3cnn(CC4CC4)c3)cc2)c(C(F)(F)F)[nH]c1=O [Example 221, 5-(4-((1-(cyclopropylmethyl)-1H-pyrazol-4-yl)methoxy)phenyl)-2-oxo-6-(trifluoromethyl)-1,2-dihydropyridine-3-carboxamide] | 10 to 25
9 | CCn1cc(COc2ccc(-c3cc(C(N)=O)c(=O)[nH]c3C(F)(F)F)cc2)cn1 [Example 222, 5-(4-((1-ethyl-1H-pyrazol-4-yl)methoxy)phenyl)-2-oxo-6-(trifluoromethyl)-1,2-dihydropyridine-3-carboxamide] | 25 to 50
10 | NC(=O)c1cc(-c2ccc(OCc3ccon3)cc2)c(C(F)(F)F)[nH]c1=O [Example 223, 5-(4-(isoxazol-3-ylmethoxy)phenyl)-2-oxo-6-(trifluoromethyl)-1,2-dihydropyridine-3-carboxamide] | 25 to 50
11 | Cc1cc(COc2ccc(-c3cc(C(N)=O)c(=O)[nH]c3C(F)(F)F)cc2)no1 [Example 224, 5-(4-((5-methylisoxazol-3-yl)methoxy)phenyl)-2-oxo-6-(trifluoromethyl)-1,2-dihydropyridine-3-carboxamide] | 25 to 50
12 | NC(=O)c1cc(-c2ccc(OCC3CCO3)cc2)c(C(F)(F)F)[nH]c1=O (stereo not shown) [Example 225, 5-(4-(oxetan-2-ylmethoxy)phenyl)-2-oxo-6-(trifluoromethyl)-1,2-dihydropyridine-3-carboxamide] | 25 to 50
13 | NC(=O)c1cc(-c2ccc(OCC3(F)COC3)cc2)c(C(F)(F)F)[nH]c1=O [Example 226, 5-(4-((3-fluorooxetan-3-yl)methoxy)phenyl)-2-oxo-6-(trifluoromethyl)-1,2-dihydropyridine-3-carboxamide] | 25 to 50
14 | CC1(COc2ccc(-c3cc(C(N)=O)c(=O)[nH]c3C(F)(F)F)cc2)COC1 [Example 227] | 25 to 50
15 | CCC1(COc2ccc(-c3cc(C(N)=O)c(=O)[nH]c3C(F)(F)F)cc2)COC1 [Example 228] | 10 to 25
16 | N#CCC1(COc2ccc(-c3cc(C(N)=O)c(=O)[nH]c3C(F)(F)F)cc2)COC1 [Example 229, 5-(4-((3-(cyanomethyl)oxetan-3-yl)methoxy)phenyl)-2-oxo-6-(trifluoromethyl)-1,2-dihydropyridine-3-carboxamide] | 25 to 50
17 | NC(=O)c1cc(-c2ccc(OCC3CCOC3)cc2)c(C(F)(F)F)[nH]c1=O (stereo not shown) [Example 231, 2-oxo-5-(4-((tetrahydrofuran-3-yl)methoxy)phenyl)-6-(trifluoromethyl)-1,2-dihydropyridine-3-carboxamide] | 25 to 50
18 | NC(=O)c1cc(-c2ccc(OCC3CCCO3)cc2)c(C(F)(F)F)[nH]c1=O (stereo not shown) [Example 232, 2-oxo-5-(4-((tetrahydrofuran-2-yl)methoxy)phenyl)-6-(trifluoromethyl)-1,2-dihydropyridine-3-carboxamide] | 10 to 25
19 | CN1CC(COc2ccc(-c3cc(C(N)=O)c(=O)[nH]c3C(F)(F)F)cc2)OC1=O (stereo not shown) [Example 233, 5-(4-((3-methyl-2-oxooxazolidin-5-yl)methoxy)phenyl)-2-oxo-6-(trifluoromethyl)-1,2-dihydropyridine-3-carboxamide] | 25 to 50

Same assay, conditions: read-out: RNP_Hubei B

Row | SMILES | IC50 [µM]
20 | NC(=O)c1cc(-c2ccc(OCc3cncc(C4(O)COC4)c3)cc2)c(C(F)(F)F)[nH]c1=O [Example 181, 5-(4-((5-(3-hydroxyoxetan-3-yl)pyridin-3-yl)methoxy)phenyl)-2-oxo-6-(trifluoromethyl)-1,2-dihydropyridine-3-carboxamide] | 25 to 50
21 | NC(=O)c1cc(-c2ccc(OC(c3cccnc3)C3CC3)cc2)c(C(F)(F)F)[nH]c1=O (stereo not shown) [Example 184, 5-(4-(cyclopropyl(pyridin-3-yl)methoxy)phenyl)-2-oxo-6-(trifluoromethyl)-1,2-dihydropyridine-3-carboxamide] | 10 to 25
22 | C=CCCC(Oc1ccc(-c2cc(C(N)=O)c(=O)[nH]c2C(F)(F)F)cc1)c1cccnc1 (stereo not shown) [Example 185, 2-oxo-5-(4-((1-(pyridin-3-yl)pent-4-en-1-yl)oxy)phenyl)-6-(trifluoromethyl)-1,2-dihydropyridine-3-carboxamide] | 10 to 25
23 | COCC(Oc1ccc(-c2cc(C(N)=O)c(=O)[nH]c2C(F)(F)F)cc1)c1cccnc1 (stereo not shown) [Example 186, 5-(4-(2-methoxy-1-(pyridin-3-yl)ethoxy)phenyl)-2-oxo-6-(trifluoromethyl)-1,2-dihydropyridine-3-carboxamide] | 25 to 50
24 | NC(=O)c1cc(-c2ccc(OCC3CNCCO3)cc2)c(C(F)(F)F)[nH]c1=O (stereo not shown) [Example 189, 5-(4-(morpholin-2-ylmethoxy)phenyl)-2-oxo-6-(trifluoromethyl)-1,2-dihydropyridine-3-carboxamide] | 25 to 50
25 | CC(C)S(=O)(=O)N1CCOC(COc2ccc(-c3cc(C(N)=O)c(=O)[nH]c3C(F)(F)F)cc2)C1 (stereo not shown) [Example 191, 5-(4-((4-(isopropylsulfonyl)morpholin-2-yl)methoxy)phenyl)-2-oxo-6-(trifluoromethyl)-1,2-dihydropyridine-3-carboxamide] | 25 to 50
26 | NC(=O)c1cc(-c2ccc(OCC3CN(CC(F)F)CCO3)cc2)c(C(F)(F)F)[nH]c1=O (stereo not shown) [Example 192, 5-(4-((4-(2,2-difluoroethyl)morpholin-2-yl)methoxy)phenyl)-2-oxo-6-(trifluoromethyl)-1,2-dihydropyridine-3-carboxamide] | 25 to 50
27 | COCCN1CCOC(COc2ccc(-c3cc(C(N)=O)c(=O)[nH]c3C(F)(F)F)cc2)C1 (stereo not shown) [Example 193, 5-(4-((4-(2-methoxyethyl)morpholin-2-yl)methoxy)phenyl)-2-oxo-6-(trifluoromethyl)-1,2-dihydropyridine-3-carboxamide] | 25 to 50
28 | NC(=O)c1cc(-c2ccc(OCC3CN(CC4CC4)CCO3)cc2)c(C(F)(F)F)[nH]c1=O (stereo not shown) [Example 194, 5-(4-((4-(cyclopropylmethyl)morpholin-2-yl)methoxy)phenyl)-2-oxo-6-(trifluoromethyl)-1,2-dihydropyridine-3-carboxamide] | 25 to 50
29 | NC(=O)c1cc(-c2ccc(OCC3CNCCCO3)cc2)c(C(F)(F)F)[nH]c1=O (stereo not shown) [Example 195, 5-(4-((1,4-oxazepan-2-yl)methoxy)phenyl)-2-oxo-6-(trifluoromethyl)-1,2-dihydropyridine-3-carboxamide] | 25 to 50
30 | NC(=O)c1cc(-c2ccc(OCC3CN(C4COC4)CCCO3)cc2)c(C(F)(F)F)[nH]c1=O (stereo not shown) [Example 196, 5-(4-((4-(oxetan-3-yl)-1,4-oxazepan-2-yl)methoxy)phenyl)-2-oxo-6-(trifluoromethyl)-1,2-dihydropyridine-3-carboxamide] | 25 to 50
31 | CC(C)CS(=O)(=O)N1CCCOC(COc2ccc(-c3cc(C(N)=O)c(=O)[nH]c3C(F)(F)F)cc2)C1 (stereo not shown) [Example 198, 5-(4-((4-(isobutylsulfonyl)-1,4-oxazepan-2-yl)methoxy)phenyl)-2-oxo-6-(trifluoromethyl)-1,2-dihydropyridine-3-carboxamide] | 25 to 50
32 | CN1C(COc2ccc(-c3cc(C(N)=O)c(=O)[nH]c3C(F)(F)F)cc2)COCC12COC2 (stereo not shown) [Example 206, 5-(4-((5-methyl-2,8-dioxa-5-azaspiro[3.5]nonan-6-yl)methoxy)phenyl)-2-oxo-6-(trifluoromethyl)-1,2-dihydropyridine-3-carboxamide] | 25 to 50
33 | CN1C(COc2ccc(-c3cc(C(N)=O)c(=O)[nH]c3C(F)(F)F)cc2)COCC1(C)C (stereo not shown) [Example 207, 2-oxo-6-(trifluoromethyl)-5-(4-((4,5,5-trimethylmorpholin-3-yl)methoxy)phenyl)-1,2-dihydropyridine-3-carboxamide] | 5 to 10
34 | C[C@H]1COCC(COc2ccc(-c3cc(C(N)=O)c(=O)[nH]c3C(F)(F)F)cc2)N1C (stereo partly drawn) [Example 208, 5-(4-(((5S)-4,5-dimethylmorpholin-3-yl)methoxy)phenyl)-2-oxo-6-(trifluoromethyl)-1,2-dihydropyridine-3-carboxamide] | 5 to 10
